Measurements published in publication PMC11672137, “High-Affinity Lectin Ligands Enable the Detection of Pathogenic Pseudomonas aeruginosa Biofilms: Implications for Diagnostics and Therapy” (JACS Au, 2024).

What was measured:
[1] = molecular target: T1, LecA (Pseudomonas aeruginosa, UniProt Q05097); assay: Competitive binding assay based on fluorescence polarization, LecA
T1 construct: made in house
Protocol: Next, binding of the optimized divalent ligand 17 and its synthetic precursor 16 to LecA was evaluated by fluorescence polarization-based (FP) assays,[47] SPR, and ITC. […] Therefore, fluorescent ligand 17 was analyzed in a direct binding experiment by FP. […] The dissociation constants for 16 were 47.2 ± 11.3 nM (ITC) and 47.8 ± 44.1 nM (steady-state SPR), while for 17, the values were 64.1 ± 31.1 nM and 79.3 ± 24.9 nM (steady-state SPR). For the SPR experiments, Kd was also determined by single-cycle kinetic analysis resulting in approximately five times higher affinity, but the data have limited reliability due to suboptimal fit for the kinetic curves (Figures S13B and S14).[58]−[60] […]
137 mM NaCl, 2.6 mM KCl at pH 7.4 supplemented with 1 mM CaCl2). Protein concentration was determined by UV spectroscopy at 280 nm using a molar extinction coefficient of 27 960 M-1 cm-1 for LecA and 6 990 M-1 cm-1 for LecB.
All synthesized alkyne precursors (S5m, S5p, S6m, S6p, S11, 25, S16, S22 and S24) were analysed in the previously established competitive binding assays based on fluorescence polarization (Figure S2).18,19 Galactose-based compounds (S5m, S5p, S6m, S6p, S11) were evaluated against LecA and C-glycoside-based compounds […] and S16 against LecB. […]
PheraStar FS plate reader (BMG Labtech GmbH, Germany) with excitation filters at 485 nm and emission filters at 535 nm. […]

[2] = molecular target: T1, LecA; assay: Direct binding assay based on fluorescence polarization, titration with LecA; details: read-out: Kd (direct binding, fluorescence polarization); LecA titrated to fluorescent probe, TBS/Ca2+ buffer
Protocol: The binding affinities of imaging probes 2–4 for LecA were determined using a direct binding assay based on fluorescence polarization (FP).[47]
(A, C) Monovalent LecA imaging probes 2–4 based on phenyl β-D-galactoside (1) were titrated with LecA. […] (E) Xyloside-fluorescein conjugate (8) and azido fluorescein (9) served as negative controls in titrations with LecA and LecB, respectively. Averages and standard deviations were determined from at least three independent titrations of technical triplicates each.
Direct binding affinity determination of LecA and LecB imaging probes was performed with direct titration of protein and imaging probes in TBS/Ca2+ buffer. Protein dilution series was prepared in 96 well plates and 10 µL of each dilution in triplicates were mixed with 10 µL of fluorescent compound (20 nM) in 384-well microtiter plates (Greiner Bio-One, Germany, cat no 781900). The plates were centrifuged (1 min, 500 g), sealed and incubated for 2 h in dark wet chamber under gentle shaking. Fluorescence was measured on a PheraStar FS plate reader (BMG Labtech GmbH, Germany) with excitation filters at 485 nm and emission filters at 535 nm. The data were analysed with MARS Data Analysis Software (BMG Labtech GmbH, Germany) to calculate Kd values.

T1 sequence (Q05097 whole entry): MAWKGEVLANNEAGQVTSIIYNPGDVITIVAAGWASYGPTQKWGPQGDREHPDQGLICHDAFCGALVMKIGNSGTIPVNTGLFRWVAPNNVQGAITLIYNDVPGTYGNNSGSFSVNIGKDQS

C#CCCN(Cc1ccc(NC(=O)CCc2ccc(O[C@@H]3O[C@H](CO)[C@H](O)[C@H](O)[C@H]3O)cc2)cc1)Cc1ccc(NC(=O)CCc2ccc(O[C@@H]3O[C@H](CO)[C@H](O)[C@H](O)[C@H]3O)cc2)cc1 [compound 16]
IC50 [1]: 5.6 ± 2.2 µM

O=C(CCc1ccc(O[C@@H]2O[C@H](CO)[C@H](O)[C@H](O)[C@H]2O)cc1)Nc1ccc(CN(CCc2cn(CCOCCOCCOCCNC(=S)Nc3ccc4c(c3)C(=O)OC43c4ccc(O)cc4Oc4cc(O)ccc43)nn2)Cc2ccc(NC(=O)CCc3ccc(O[C@@H]4O[C@H](CO)[C@H](O)[C@H](O)[C@H]4O)cc3)cc2)cc1 [compound 17]
Kd [2]: 1.05 ± 0.12 µM
